{
  "source": "ChEMBL document CHEMBL5727878",
  "about": "“Triazole furan compounds as agonists of the APJ receptor” (2020)",
  "target": "T1, Apelin receptor (Homo sapiens, UniProt P35414)",
  "T1 sequence (P35414 whole entry)": "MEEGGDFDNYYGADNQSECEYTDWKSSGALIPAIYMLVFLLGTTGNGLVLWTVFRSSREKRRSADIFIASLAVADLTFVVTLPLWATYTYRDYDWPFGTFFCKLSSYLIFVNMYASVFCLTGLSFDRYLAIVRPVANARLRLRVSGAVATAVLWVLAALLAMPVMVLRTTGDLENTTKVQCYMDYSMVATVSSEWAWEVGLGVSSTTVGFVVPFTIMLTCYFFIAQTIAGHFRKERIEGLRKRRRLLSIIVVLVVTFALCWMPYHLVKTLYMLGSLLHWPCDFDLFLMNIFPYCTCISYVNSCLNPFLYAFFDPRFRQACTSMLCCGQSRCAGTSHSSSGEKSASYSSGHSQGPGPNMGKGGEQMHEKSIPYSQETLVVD",
  "assay": "GTPγS Binding: The human APJ receptor was cloned by polymerase chain reaction and the gene encoding the receptor was subcloned in pFLAG-CMV-3 expression vector (Sigma, Saint Louis, Mo. USA) in-house at Amgen. A GTPγS binding assay was performed on membranes prepared from CHO cells stably expressing human APJ receptor. The optimum experimental conditions for the concentrations of GDP, MgCl2, and NaCl in the assay buffer were initially determined. The assay was performed in assay buffer [20 mM HEPES, pH 7.5, 5 mM MgCl2, and 0.1% (w/v) BSA with 200 mM NaCl, 3 μM GDP] and membranes expressing human APJ receptor/well along with WGA PS beads. The reaction was initiated by addition of 0.2 nM [35S]GTPγS in the absence or presence of various ligands and incubated at RT for 90 min. Nonspecific binding was determined in the presence of 100 μM GTPγS and was always less than 0.2% of total binding.",
  "data": [
    {"compound": "COc1cccc(OC)c1-n1c(NS(=O)(=O)C[C@@H](C)c2ncc(C)cn2)nnc1-c1ccco1", "note": "(single isomer, unassigned)", "values": [
      {"measurement": "EC50", "value": 6.7, "unit": "nM"}
    ]},
    {"compound": "COc1cccc(OC)c1-n1c(NS(=O)(=O)[C@@H](C)[C@H](OC)c2ccc(C#N)cc2C#N)nnc1-c1ccc(C)o1", "note": "(mixture of isomers)", "values": [
      {"measurement": "EC50", "value": 0.21, "unit": "nM"}
    ]}
  ]
}
